Several values for one entry are separate records, joined by “and”; a condition that tells them apart may be missing. Equal values may be shown once.
What was measured:
[1] = system: HTLA-230 human stage-IV NB cells; experiment: Cell viability assay (CellTiter 96 AQueous One Solution) on HTLA-230 NB cells; assay type: cell-based; settings: for viability at 0.5 µM: series 0.5–50 µM
Source text: HTLA-230 human stage-IV NB cells were kindly provided by Dr. L. Raffaghello (G. Gaslini Institute, Genoa, Italy). The HTLA-ER cells were selected by treating HTLA-230 parental cells for six months with increasing concentrations of etoposide, as previously reported. Both cell populations were maintained in RPMI 1640 medium (Euroclone Spa, Pavia, Italy) supplemented with 10% fetal bovine serum (FBS, Euroclone Spa, Pavia, Italy), 1% L-glutamine (Euroclone Spa, Pavia, Italy), and 1% Penicillin/Streptomicin (Euroclone Spa, Pavia, Italy) and grown in standard conditions (37 °C humidified incubator with 5% CO2).
To determine the cytotoxic effects of BPPB, in vitro time- and dose-dependent experiments were carried out. Cells were first treated for 24, 48, and 72 h, with increasing concentrations (0.5–50 µM) of the compound. In a subsequent series of the experiments, cells were treated for 24, 48, and 72 h with increasing concentration of BPPB in the range of 0.1–2 µM. […] Cell cultures were carefully monitored before and during the experiments to ensure optimal cell density.
Cell viability was determined by using the CellTiter 96® AQueous One Solution Cell Proliferation Assay (Promega, Madison, WI, USA), as previously described. Briefly, cells (10,000 cells/well) were seeded into 96-well plates (Corning Incorporated, Corning, NY, USA) and then treated. Next, cells were incubated with 20 µL of CellTiter, and the absorbance at 490 nm was recorded using a microplate reader (EL-808, BIO-TEK Instruments Inc., Winooski, VT, USA). IC50 was evaluated by GraphPad Prism 5.4.2 Software (GraphPad Software, Boston, MA, USA).
Results are expressed as the means ± S.D. of at least four independent experiments in which six different wells were analyzed every time for each experimental condition. The statistical significance of differences was determined by two-way analysis of variances (ANOVA) followed by Tukey’s multicomparison test using GraphPad Prism 8.0 (GraphPad Software v8.0, San Diego, CA, USA); p < 0.05 was considered statistically significant. Asterisks or other indicators (see Figures captions) indicate the following p-value ranges: p > 0.05 no symbols, * = p < 0.05, ** = p < 0.01, *** = p < 0.001, **** = p < 0.0001.

[2] = MTT cytotoxicity assay on HepG2 cells; assay type: cell-based, human; settings: human
Protocol: (§1) To assess the cytotoxicity properties of BPPB, the MTT (3-(4,5-dimethylthiazol-2-yl)-2,5-diphenyltetrazolium bromide) cell proliferation assay (Abcam, Prodotti Gianni s.r.l., Milano, Italy, Cat#ab2011091) was performed, following the manufacturer’s protocol, as previously reported. This time, the increasing concentrations of BPPB were in the range of 0.4–85.3 µM. The cell survival rate, expressed as cell viability percentage (%), was evaluated based on the experimental outputs of treated groups vs. the untreated groups (CTR) and was calculated as follows: cell viability (%) = (OD treated cells − OD blank)/(OD untreated cells − OD blank) × 100%.
(§2) In this study, the cytotoxicity profile of BPPB was assessed in both immortalized human liver cells (HepG2) cells, as in our previous works, and in transformed African green monkey kidney fibroblast cells (Cos-7), as reported in a recent paper. Specifically, we evaluated the cytotoxicity of BPPB by carrying out both the MTT proliferation assay and the lactate dehydrogenase (LHD) cytotoxicity assay, which measures the LDH activity as an indicator of cell death. Both cell lines were exposed for 24 h to increasing concentrations of BPPB (0.4–85.3 µM). Growth inhibition/death were determined by the MTT test, while cell cytotoxicity was determined by LDH assay, with respect to untreated control cells. Results are reported as bar graphs in Figure 8 and as dispersion graphs in Figures S13 and S14 in Supplementary Materials (Section S2).

[3] = system: HepG2 cells; experiment: MTT cytotoxicity assay on HepG2 cells; assay type: cell-based, human; settings: for IC50: MTT, concentration range 0.4–85.3 µM
Protocol: as §1, §2

[4] = system: Cos-7 cells; experiment: LDH cytotoxicity assay on Cos-7 cells; assay type: cell-based; settings: 24 h
Protocol: (§3) To assess the cytotoxicity properties of BPPB, the lactate dehydrogenase (LDH) cytotoxicity assay (Abcam, Cat#ab102526) was performed, following manufacturer’s protocol, as previously described. This time, the increasing concentrations of BPPB were in the range 0.4–85.3 µM.
as §2

[5] = system: HepG2 cells; experiment: LDH cytotoxicity assay on HepG2 cells; assay type: cell-based; settings: LDH test; 24 h
Protocol: as §3, §2

[6] = system: HepG2 cells; set-up: method as in earlier work; settings: MTT test; Table S1, previously assessed characteristics; cited from earlier work

## c1ccc([P+](CCCCCCCCCCCC[P+](c2ccccc2)(c2ccccc2)c2ccccc2)(c2ccccc2)c2ccccc2)cc1 [BPPB, 1,1-(1,12-dodecanediyl)bis [1,1, 1]-triphenylphosphonium di-bromide]
[1]; 24 h, concentration at which hemolysis was inexistent (concentration not stated)
  Cell viability HTLA-230: 18.2%
[1]; 24 h exposure, refined concentration range 0.1–2 µM
  IC50: 240 nM and 238 nM
[1]; 24 h treatment, HTLA-230 and HTLA-ER, concentrations leaving more than 98% of RBCs alive
  Viable cells, both NB cell populations: 14–18%
[1]; Homo sapiens, HTLA-230, 24 h, 24 h exposure, concentration range 0.5–50 µM
  IC50: 738 ± 546 nM
[1]; Homo sapiens, HTLA-230, 24 h, 24 h exposure, refined concentration range 0.1–2 µM
  IC50: 200 nM
[1]; Homo sapiens, HTLA-230, 48 h, 48 h exposure, concentration range 0.5–50 µM
  IC50: 590 ± 445 nM
[1]; Homo sapiens, HTLA-230, 48 h, 48 h exposure, refined concentration range 0.1–2 µM
  IC50: 196 ± 21.1 nM
[1]; Homo sapiens, HTLA-230, 72 h, 72 h exposure, concentration range 0.5–50 µM
  IC50: 203 ± 178 nM
[1]; Homo sapiens, HTLA-230, 72 h, 72 h exposure, refined concentration range 0.1–2 µM
  IC50: 228 ± 17.6 nM
[1]; Homo sapiens, HTLA-230, 0.25 µM, 24 h, series 0.1–2 µM
  viability at 0.25 µM: 53.1%
[1]; Homo sapiens, HTLA-230, 24 h
  viability at 0.5 µM: 46%
[1]; Homo sapiens, HTLA-230, 48 h
  viability at 0.5 µM: 41.6%
[1]; Homo sapiens, HTLA-230, 72 h
  viability at 0.5 µM: 21.7%
[1]; Homo sapiens, HTLA-230, concentrations ≥ 5 µM, 24, 48, 72 h
  viability at 5 µM: 16 to 18%
[1]; after 24 h treatments, MRC-5, Cos-7, HepG2, RBCs vs HTLA-230 and HTLA-ER
  Selectivity indexes (SIs), all non-tumoral cells vs both NB cell populations: 2.5–74.6
[2]; HepG2 cells, 8.5 µM and 4.3 µM, which value belongs to which concentration is not stated, read-out: Cell viability HepG2 (MTT)
  viability at 24 h: 64.5%
[2]; read-out: Selectivity index (SI) = IC50 HepG2 / IC50 HTLA-ER
  selectivity ratio at 24 h: 8.7
[3]; 24 h
  Selectivity index (SI) = IC50 HepG2 / IC50 HTLA-230: 40.6 and 40.63
  Selectivity index (SI) = IC50 HepG2 / IC50 HTLA-ER: 8.68
  IC50: 9640 ± 1310 nM
[3]; Homo sapiens, HepG2, 24 h
  IC50: 9600 nM
[3]; MTT test, 24 h
  Concentrations with a safety profile toward HepG2: ≤ 8.5 µM
[4]; 4.3 µM
  LDH release Cos-7 (optical density): 0.30 OD
[4]; 8.5 µM
  LDH release Cos-7 (optical density): 0.80 OD
[4]; LDH test
  Concentrations with a safety profile toward Cos-7: ≤ 4.3 µM
[5]
  Concentrations with a safety profile toward HepG2: ≤ 8.5 µM
[6]
  IC50 HepG2 cell: 11.31 ± 1.54 µg/mL

From publication PMC11434613, “The Remarkable and Selective In Vitro Cytotoxicity of Synthesized Bola-Amphiphilic Nanovesicles on Etoposide-Sensitive and -Resistant Neuroblastoma Cells” (Nanomaterials, 2024)
